In the assay the test system is PDE4. Nature of the assay: Inhibition of cyclic nucleotide PDE activity (Assay I), PDE4, incl. Lineweaver-Burk analysis. The class given is biochemical, guinea pig. To be noted: from the IC50s of Table 2. As for the experimental part:
Under a protocol approved by the Animal Care and Use Committee of Taipei Medical University, five male guinea pigs (Hartley), weighing 500-600 g, were sacrificed. The lungs (15 g) or hearts (4 g) taken therefrom were chopped into small pieces and homogenized with a glass/teflon homogenizer (Glas-Col, Terre Haute, Ind., USA) in 10 volumes of cold medium (pH 6.5) containing 20 mM Bis-Tris, 2 mM benzamidine, 2 mM EDTA, 50 mM sodium chloride, 0.1 mM phenylmethanesulfonyl fluoride (PMSF), and 1 mM dithiothreitol. At 4° C., the homogenate was centrifuged at 170 g for 15 min, and the supernatant thereof was then re-centrifuged at 40,000 g for 30 min. […] The column was washed with two bed volumes of homogenate buffer to remove unbound material, where the resin beads therein will bind with proteins, such as PDE proteins. Proteins bound to the Q-sepharose beads were eluted with various concentrations (0.23, 0.34, 0.44, 0.69, and 1.00 M) of NaCl dissolved in homogenate buffer (for each concentration, 40-50 mL elution buffer were applied) at a flow rate of 30 ml/h. Fractions (3 ml each) were collected, and ethylene glycol (EG) was added thereto until a final concentration of 30% (v/v). And then the samples were frozen at −70° C.
The activities of PDE1-5 in the homogenate were measured with a two-step procedure according to the method of Thompson and Appleman, using cAMP with [^3H]-cAMP or cGMP with [^3 H]-cGMP as substrates. The PDE enzyme prepared (25 μl) with 10 μl inhibitor or the solvents therefor was incubated for 30 min at 37° C. in a total assay buffer, where the final volume of the assay is amounted to 100 μl. In accordance with the features of the PDE isozymes, the assay buffer contains 50 mM Tris/HCl (pH 7.4), 3 mM MgCl2, 1 mM dithiothreitol, and 0.05% BSA, and optionally contains 1 uM cAMP with 0.2 μCi [^3H]-cAMP as a substrate alone or in the presence of 0.1 unit calmodulin with 10 μM CaCl2, or 5 μM cGMP, and 1 μM cGMP with 0.2 μCi [^3H]-cGMP as another substrate alone or in the presence of 0.1 unit calmodulin with 10 μM CaCl2.
The PDE enzyme and the inhibitors (or their solvent) therefor were mixed and incubated on ice for 30 min previously, and then mixed with the assay buffer. The assay was initiated by transferring the mixture to a water bath at 37° C. Following the other 30 min incubation, the reaction was stopped by transferring the reaction vessel to a bath of boiling water for 3 min. After cooling on ice, 20 μl of the 1 mg/ml of Crotalus atrox venom was added to the reaction mixture, and the mixture was incubated at 37° C. for 10 min. The uncatalyzed substrates, such as cAMP, [^3H]-cAMP, cGMP, or [^3H]-cGMP were removed by the addition of 500 μl of a 1-in-1 Tris-HCl (40 mM) buffer suspension of Dowex resin (1×8-200) with incubation on ice for 30 min, since the bindings of the cyclic nucleotides and the resin. Each tube was then centrifuged for 2 min at 6000 rpm, and 100 μl of the supernatant was removed and counted by a β-counter for calculating the enzyme (PDEs) activity.
The dissociation constant of inhibitor binding (Ki) value was determined from the equation of apparent Km as a function of the inhibitor concentration (insert in A and B, respectively). The slope of the equation is equal to the value of […] (where KM is Michaelis constant). The amounts of the total proteins are calculated based on the analytical method reported by Bradford. In FIGS. 1A and 1B, all enzyme activities are shown as nmole of substrate per mg of proteins per minute (nmole/mg/min) hydrolyzed.
The IC50 values of flavonoids and various reference drugs were calculated using non-linear regression analysis by the software SigmaPlot 7.0 (Sigma Chemical, St. Louis Mo., USA).

`COc1cc(O)c2c(=O)c(-c3ccc(O)cc3)coc2c1` [Prunetin]: the “selectivity among PDE1-5” value is “more-selective inhibition on PDE4”.

The values are drawn from US20060229358A1, “Pharmaceutical composition containing flavonoids” (Taipei Medical University, priority 2005, published 2006).
